Experimental data taken from patent US20120135923A1, “Use of Melanocortins to Treat Dyslipidemia” (IPSEN PHARMA, S.A.S., priority 2009, published 2012).
pEC50, pKi: −log10 of the molar value. Like-named read-outs stand apart in the source and are kept apart here. Bridge positions count the residues as written; N and C are the ends. Square brackets hold non-standard residues; d marks the D form. Peptide text beside a SMILES is read from it. d2Nal = N[C@H](Cc1ccc2ccccc2c1)C(=O)O; Bta = N[C@@H](Cc1csc2ccccc12)C(=O)O; Pen = CC(C)(S)[C@H](N)C(=O)O; Nle = CCCC[C@H](N)C(=O)O; GABA = NCCCC(=O)O

What was measured:
hMC1-R [1] = biological target: T1, hMC1-R (Homo sapiens, UniProt Q01726); assay: Radioligand binding assay, [125I]-NDP-α-MSH competition, CHO-K1 membranes
T1 construct: expressed in transfected cells; host or cells: CHO-K1
T1 sequence (Q01726 whole entry): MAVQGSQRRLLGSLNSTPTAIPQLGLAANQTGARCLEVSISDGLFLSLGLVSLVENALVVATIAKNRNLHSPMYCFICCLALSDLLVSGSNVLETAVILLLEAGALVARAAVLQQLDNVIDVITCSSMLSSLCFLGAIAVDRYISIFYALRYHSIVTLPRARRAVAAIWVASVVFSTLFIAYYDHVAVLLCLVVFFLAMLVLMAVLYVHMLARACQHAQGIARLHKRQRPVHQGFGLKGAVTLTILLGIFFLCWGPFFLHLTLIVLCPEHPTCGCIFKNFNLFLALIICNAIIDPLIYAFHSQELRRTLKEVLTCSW
Description: (§1) Cellular membranes used for the in vitro receptor binding assays were obtained from transgenic CHO-K1 cells stably expressing hMC-R receptor subtypes 1, 3, 4 or 5. […] The pellets were resuspended in the same buffer and centrifuged at 50,000 g for 10 minutes at approximately 4° C. The washed pellets containing the cellular membranes were stored at approximately −80° C.
(§2) Cell membranes (1-10 μg protein/well) prepared as described above were incubated in 50 mM Tris-HCl at pH 7.4 containing 0.2% bovine serum albumin (BSA), 5 mM MgCl2, 1 mM CaCl2 and 0.1 mg/mL bacitracin, with increasing concentrations of the test compound and 0.1-0.3 nM [^25I]-NDP-α-MSH for approximately 90-120 minutes at approximately 37° C. […] Filters were washed three times with 50 mM Tris-HCl at pH 7.4 at a temperature of approximately 0-4° C. and then assayed for radioactivity using a Packard Topcount® scintillation counter. Binding data were analyzed by computer-assisted non-linear regression analysis (XL fit; IDBS).

hMC1-R [2] = biological target: T1, hMC1-R; assay: cyclic AMP bioassay (ECL) in CHO-K1 cells; type: cell-based
Description: (§3) Intracellular cyclic AMP (cAMP) levels were determined by an electrochemiluminescence (ECL) assay (Meso Scale Discovery®, Gaithersburg, Md.; referred to hereinafter as MSD). […] Transgenic CHO-K1 cells stably expressing hMC receptor subtypes 1, 3, 4 or 5 were dispensed at a density of approximately 7,000 cells/well in 384-well Multi-Array®plates (MSD) containing integrated carbon electrodes and coated with anti-cAMP antibody. Increasing concentrations of the test compounds were added and the cells were incubated for approximately 40 minutes at approximately 37° C. […] At the end of the second incubation period read buffer (Tris-buffered solution containing an ECL co-reactant and Triton X-100 at ph 7.8) was added and the cAMP levels in the cell lysates were immediately determined by ECL detection with a Sector Imager 6000 Reader® (MSD). Data were analyzed using a computer-assisted non-linear regression analysis (XL fit; IDBS) and reported as either an EC50 value or a Kb value.
(§4) The Kb value reflects the potency of an antagonist and is determined by Schild analysis. In brief, concentration-response curves of an agonist are carried out in the presence of increasing concentrations of an antagonist. […] It is calculated by extrapolating the line on a Schild plot to zero on the y-axis.

hMC4-R = biological target: T2, hMC4-R (Homo sapiens, UniProt P32245); assay: cyclic AMP bioassay (ECL) in CHO-K1 cells; type: cell-based
T2 construct: expressed in transfected cells; host or cells: CHO-K1
T2 sequence (P32245 whole entry): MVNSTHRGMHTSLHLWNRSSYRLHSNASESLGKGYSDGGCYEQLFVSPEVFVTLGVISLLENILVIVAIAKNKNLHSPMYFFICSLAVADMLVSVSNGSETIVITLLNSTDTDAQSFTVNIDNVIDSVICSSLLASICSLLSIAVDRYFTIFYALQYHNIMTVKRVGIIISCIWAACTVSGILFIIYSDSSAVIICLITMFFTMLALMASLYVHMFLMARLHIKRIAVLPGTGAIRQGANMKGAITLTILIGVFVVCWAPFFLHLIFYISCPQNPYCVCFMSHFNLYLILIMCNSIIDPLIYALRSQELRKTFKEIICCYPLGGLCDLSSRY

hMC3-R [3] = biological target: T3, hMC3-R (Homo sapiens, UniProt P41968); assay: cyclic AMP bioassay (ECL) in CHO-K1 cells; type: cell-based
T3 construct: expressed in transfected cells; host or cells: CHO-K1
T3 sequence (P41968 whole entry): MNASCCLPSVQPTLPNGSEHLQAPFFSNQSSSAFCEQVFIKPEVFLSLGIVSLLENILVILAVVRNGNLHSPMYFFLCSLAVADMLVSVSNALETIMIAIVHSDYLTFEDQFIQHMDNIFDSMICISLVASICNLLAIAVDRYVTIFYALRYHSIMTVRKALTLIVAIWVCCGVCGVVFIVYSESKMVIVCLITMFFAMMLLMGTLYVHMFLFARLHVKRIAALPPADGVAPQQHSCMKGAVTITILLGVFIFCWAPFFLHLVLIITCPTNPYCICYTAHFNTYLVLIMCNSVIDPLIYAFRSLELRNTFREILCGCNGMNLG

hMC5-R [4] = biological target: T4, hMC5-R (Homo sapiens, UniProt P33032); assay: cyclic AMP bioassay (ECL) in CHO-K1 cells; type: cell-based
T4 construct: expressed in transfected cells; host or cells: CHO-K1
T4 sequence (P33032 whole entry): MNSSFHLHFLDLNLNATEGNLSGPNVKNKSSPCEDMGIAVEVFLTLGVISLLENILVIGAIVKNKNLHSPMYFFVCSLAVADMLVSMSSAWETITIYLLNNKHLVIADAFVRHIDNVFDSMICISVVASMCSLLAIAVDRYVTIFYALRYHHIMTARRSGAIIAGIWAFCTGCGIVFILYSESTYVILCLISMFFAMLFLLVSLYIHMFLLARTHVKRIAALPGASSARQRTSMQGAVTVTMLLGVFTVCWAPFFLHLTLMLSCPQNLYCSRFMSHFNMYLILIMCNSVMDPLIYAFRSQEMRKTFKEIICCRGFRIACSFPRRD
Description: as §3, §4

hMC3-R [5] = biological target: T3, hMC3-R; assay: Radioligand binding assay, [125I]-NDP-α-MSH competition, CHO-K1 membranes
Description: as §1, §2

hMC5-R [6] = biological target: T4, hMC5-R; assay: as above; details: Table 5; read-out: Ki hMC5-R
Description: as §1, §2

[7] = Table 9A/9B, read-out: EC50 hMC1-R
[8] = Table 9A/9B, read-out: EC50 hMC4-R
[9] = Table 9A/9B, read-out: EC50 hMC3-R
[10] = Table 9A/9B, read-out: EC50 hMC5-R

Structure (SMILES) | pKi (hMC1-R [1]; Table 5, read-out: Ki hMC1-R) | pEC50 (hMC1-R [2]; [7]) | pEC50 (hMC4-R; [8]) | pEC50 (hMC3-R [3]; [9]) | pEC50 (hMC5-R [4]; [10]) | pKi (hMC3-R [5]; Table 5, read-out: Ki hMC3-R) | other results
CC(=O)N[C@H](CCCNC(=N)N)C(=O)N[C@H]1CSSC(C)(C)[C@@H](C(N)=O)NC(=O)CCCNC(=O)[C@H](Cc2c[nH]c3ccccc23)NC(=O)[C@H](CCCNC(=N)N)NC(=O)[C@@H](Cc2ccccc2)NC(=O)[C@H](Cc2c[nH]cn2)NC1=O [Ac-D-Arg-c(Cys-His-D-Phe-Arg-Trp-Gaba-Pen)-NH2] (Ac-[dR]CH[dF]RW[GABA][Pen]-NH2; disulfide 2-8 (inferred)) | 8.41 | 8.07 | 9.02 | 7.49 | 5.67 |  | 
CC(=O)N[C@@H](CCCNC(=N)N)C(=O)N[C@H]1CSSC(C)(C)[C@@H](C(N)=O)NC(=O)CCCNC(=O)[C@H](Cc2c[nH]c3ccccc23)NC(=O)[C@H](CCCNC(=N)N)NC(=O)[C@@H](Cc2ccccc2)NC(=O)[C@H](Cc2c[nH]cn2)NC1=O [Ac-Arg-c(Cys-His-D-Phe-Arg-Trp-Gaba-Pen)-NH2] (Ac-RCH[dF]RW[GABA][Pen]-NH2; disulfide 2-8 (inferred)) | 8.74 | 8.37 | 9.14 | 8.09 | 7.63 |  | 
CC(=O)N[C@@H](CC(C)C)C(=O)N[C@H]1CSSC[C@@H](C(N)=O)NC(=O)CCCNC(=O)[C@H](Cc2c[nH]c3ccccc23)NC(=O)[C@H](CCCNC(=N)N)NC(=O)[C@@H](Cc2ccccc2)NC(=O)[C@H](Cc2c[nH]cn2)NC1=O [Ac-Leu-c(Cys-His-D-Phe-Arg-Trp-Gaba-Cys)-NH2] (Ac-LCH[dF]RW[GABA]C-NH2; disulfide 2-8 (inferred)) |  |  |  |  |  | 7.76 | 
CCCC[C@H](NC(C)=O)C(=O)N[C@H]1CSSC(C)(C)[C@@H](C(N)=O)NC(=O)[C@H](Cc2c[nH]c3ccccc23)NC(=O)[C@H](CCCNC(=N)N)NC(=O)[C@@H](Cc2ccccc2)NC(=O)[C@H](Cc2c[nH]cn2)NC(=O)[C@@H](C)NC1=O [Ac-Nle-c(Cys-D-Ala-His-D-Phe-Arg-Trp-Pen)-NH2] |  |  |  |  |  |  | pKi (hMC3-R [5]; Ki hMC3-R, Table 5): 7.64; pKi (hMC1-R [1]; Ki hMC1-R, Table 5): 7.54; pEC50 (hMC1-R [2]): 7.84; pEC50 (hMC4-R): 9.74; pEC50 (hMC3-R [3]): 8.69; pEC50 (hMC5-R [4]): 5.65
CCCC[C@H](N)C(=O)N[C@H]1CSSC[C@@H](C(N)=O)NC(=O)CCCNC(=O)[C@H](Cc2c[nH]c3ccccc23)NC(=O)[C@H](CCCNC(=N)N)NC(=O)[C@@H](Cc2ccccc2)NC(=O)[C@H](Cc2c[nH]cn2)NC1=O [Nle-c(Cys-His-D-Phe-Arg-Trp-Gaba-Cys)-NH2] (H-[Nle]CH[dF]RW[GABA]C-NH2; disulfide 2-8) | 10.30 | 9.43 | 10.68 | 10.00 | 8.77 |  | 
N=C(N)NCCC[C@@H]1NC(=O)[C@@H](Cc2ccccc2)NC(=O)[C@H](Cc2c[nH]cn2)NC(=O)[C@@H](NC(=O)[C@@H](N)Cc2ccccc2)CSSC[C@@H](C(N)=O)NC(=O)CCCNC(=O)[C@H](Cc2c[nH]c3ccccc23)NC1=O [Phe-c(Cys-His-D-Phe-Arg-Trp-Gaba-Cys)-NH2] (H-FCH[dF]RW[GABA]C-NH2; disulfide 2-8) |  |  |  |  |  | 7.82 | 
CC(=O)N[C@H]1CSSC[C@@H](C(=O)N2CCC[C@H]2C(=O)N2CCC[C@H]2C(=O)N[C@@H](CCCCN)C(=O)N[C@@H](CC(=O)O)C(=O)NCCC(=O)N[C@@H](Cc2ccc(O)cc2)C(=O)NCC(=O)N[C@@H](CCCNC(=N)N)C(=O)N[C@@H](CCCCN)C(=O)N[C@@H](CCCNC(=N)N)C(=O)N[C@@H](CCCNC(=N)N)C(=O)N[C@@H](CCCNC(=N)N)C(=O)N[C@@H](CCC(N)=O)C(=O)N[C@@H](CCCNC(=N)N)C(=O)N[C@@H](CCCNC(=N)N)C(=O)N[C@@H](CCCNC(=N)N)C(N)=O)NC(=O)[C@H](C)NC(=O)[C@H](Cc2csc3ccccc23)NC(=O)[C@H](CCCNC(=N)N)NC(=O)[C@@H](Cc2ccc3ccccc3c2)NC(=O)[C@H](Cc2c[nH]cn2)NC(=O)[C@H](CCC(=O)O)NC1=O |  |  |  |  |  |  | pKi (hMC3-R [5]; Ki hMC3-R, Table 6): 8.95; pEC50 (hMC1-R [2]): 7.95; Kb (hMC4-R): 9.45 nM; Kb (hMC3-R [3]): 52.1 nM; pEC50 (hMC5-R [4]): 7.02
CCCC[C@H](NC(C)=O)C(=O)N[C@H]1CSSC[C@@H](C(N)=O)NC(=O)[C@H](Cc2c[nH]c3ccccc23)NC(=O)[C@H](CCCNC(=N)N)NC(=O)[C@@H](Cc2ccccc2)NC(=O)[C@H](Cc2c[nH]cn2)NC(=O)[C@@H](C(C)(C)C)NC1=O [Ac-Nle-c(Cys-D-Tle-His-D-Phe-Arg-Trp-Cys)-NH2] | 7.92 |  |  |  |  |  | pKi (hMC5-R [6]): 7.40
CC(=O)N[C@H](CCCNC(=N)N)C(=O)N[C@H]1CC(=O)NCCCC[C@@H](C(N)=O)NC(=O)[C@H](C)NC(=O)[C@H](Cc2c[nH]c3ccccc23)NC(=O)[C@H](CCCNC(=N)N)NC(=O)[C@@H](Cc2ccccc2)NC(=O)[C@H](Cc2c[nH]cn2)NC1=O [Ac-D-Arg-c(Asp-His-D-Phe-Arg-Trp-Ala-Lys)-NH2] | 9.10 | 8.83 | 10.11 | 8.24 | 6.53 |  | 
CCCC[C@H](NC(C)=O)C(=O)N[C@H]1CSSC[C@@H](C(N)=O)NC(=O)[C@H](Cc2c[nH]c3ccccc23)NC(=O)[C@H](CCCNC(=N)N)NC(=O)[C@@H](Cc2ccccc2)NC(=O)[C@H](Cc2c[nH]cn2)NC(=O)[C@@H](CC2CCCCC2)NC1=O [Ac-Nle-c(Cys-D-Cha-His-D-Phe-Arg-Trp-Cys)-NH2] |  | 9.09 | 9.34 | 9.27 | 7.34 | 8.68 | 
CCCC[C@H](NC(C)=O)C(=O)N[C@H]1CSSC[C@@H](C(N)=O)NC(=O)CCCNC(=O)[C@H](Cc2c[nH]c3ccccc23)NC(=O)[C@H](CCCNC(=N)N)NC(=O)[C@@H](Cc2ccccc2)NC(=O)[C@H](Cc2cccnc2)NC1=O [Ac-Nle-c(Cys-3-Pal-D-Phe-Arg-Trp-Gaba-Cys)-NH2] | 7.68 |  |  |  |  | 6.82 | pKi (hMC5-R [6]): 7.03
CCCC[C@@H]1NC(=O)N(CC(=O)N[C@H]2CSSC[C@@H](C(N)=O)NC(=O)[C@H](Cc3c[nH]c4ccccc34)NC(=O)[C@H](CCCNC(=N)N)NC(=O)[C@@H](Cc3ccccc3)NC(=O)[C@H](Cc3cnc[nH]3)NC(=O)[C@H](CCC(=O)O)NC2=O)C1=O [Hydantoin(C(O)-(Nle-Gly))-c(Cys-Glu-His-D-Phe-Arg-Trp-Cys)-NH2] |  |  |  |  |  |  | pKi (hMC1-R [1]; Table 7, read-out: Ki hMC1): 7.84; pEC50 (hMC1-R [2]; Table 11, read-out: EC50 hMC1): 7.27; pEC50 (hMC4-R; Table 11, read-out: EC50 hMC4): 9.75; pEC50 (hMC3-R [3]; Table 11, read-out: EC50 hMC3): 7.91
CC(=O)N[C@H]1CSSC[C@@H](C(=O)N2CCC[C@H]2C(=O)N2CCC[C@H]2C(=O)N[C@@H](CCCCN)C(=O)N[C@@H](CC(=O)O)C(=O)NCCC(=O)N[C@@H](CCCNC(=N)N)C(=O)N[C@@H](CCCNC(=N)N)C(=O)N[C@@H](CCCNC(=N)N)C(=O)N[C@@H](CCCNC(=N)N)C(=O)N[C@@H](CCCNC(=N)N)C(=O)N[C@@H](CCCNC(=N)N)C(=O)N[C@@H](CCC(N)=O)C(=O)N[C@@H](CCCNC(=N)N)C(=O)N[C@@H](CCCNC(=N)N)C(=O)N[C@@H](CCCNC(=N)N)C(N)=O)NC(=O)[C@H](C)NC(=O)[C@H](Cc2csc3ccccc23)NC(=O)[C@H](CCCNC(=N)N)NC(=O)[C@@H](Cc2ccc3ccccc3c2)NC(=O)[C@H](Cc2c[nH]cn2)NC(=O)[C@H](CCC(=O)O)NC1=O |  |  |  |  |  |  | pKi (hMC3-R [5]; Ki hMC3-R, Table 6): 7.84; pEC50 (hMC1-R [2]): 7.16; Kb (hMC4-R): 33.2 nM; Kb (hMC3-R [3]): 153 nM; pEC50 (hMC5-R [4]): < 5.00
CCCC[C@H](NC(C)=O)C(=O)N[C@H]1CSSC[C@@H](C(N)=O)NC(=O)[C@H](Cc2csc3ccccc23)NC(=O)[C@H](CCCNC(=N)N)NC(=O)[C@@H](Cc2ccc3ccccc3c2)NC(=O)[C@H](Cc2c[nH]cn2)NC(=O)[C@@H](C)NC1=O [Ac-Nle-c(Cys-D-Ala-His-D-2-Nal-Arg-Bal-Cys)-NH2] (Ac-[Nle]C[dA]H[d2Nal]R[Bta]C-NH2; disulfide 2-8) | 7.65 |  |  |  |  | 7.90 | pKi (hMC5-R [6]): 6.90
CCCC[C@H](NC(C)=O)C(=O)N[C@H]1CSSC[C@@H](C(N)=O)NC(=O)[C@H](Cc2c[nH]c3ccccc23)NC(=O)[C@H](CCCNC(=N)N)NC(=O)[C@@H](Cc2ccccc2)NC(=O)[C@H](Cc2c[nH]cn2)NC(=O)[C@@H](C(C)C)NC1=O [Ac-Nle-c(Cys-D-Val-His-D-Phe-Arg-Trp-Cys)-NH2] |  |  |  |  |  | 6.98 | pKi (hMC5-R [6]): 7.40
